US20200245660A1, “AGROCHEMICAL-FREE SIRAITIA GROSVENORII EXTRACT, AND METHOD FOR PREPARING SAME” (priority 2015, published 2020)
Read-outs that look alike come from different tables or passages of the source.

What was measured:
[1] = cited from earlier work
physchem = type: physicochemical; conditions: LogPow
Method: These agrochemicals are each a compound having a distribution coefficient (LogPow) of 1.71 or more. Herein, the distribution coefficient of a target compound specifically means the 1-octanol/water distribution coefficient (LogPowow) thereof. When the target compound is added into two solvent phases (of 20 to 25° C.) of 1-octanol and water to make the two phases into an equilibrium state, the distribution coefficient more specifically means the concentration ratio of the compound between the two phases (1-octanol/water). The distribution coefficient may be gained by a flask method or an HPLC method. The distribution coefficient is a physicochemical index representing the hydrophobicity (solubility into lipid) of the compound. As the compound is higher in distribution coefficient, the compound is higher in hydrophobicity. It is known that as the compound is higher in hydrophobicity, the compound is higher in storability in a living body and is also stronger in toxicity. Thus, it can be stated that as the compound is higher in distribution coefficient, the compound is an agrochemical stronger in toxicity.
For reference, out of the six, about dimethomorph, tebuconazole, difenoconazole, metalaxyl, and metalaxyl M, the respective LogPow values are shown below. […]

CC1COC(Cn2cncn2)(c2ccc(Oc3ccc(Cl)cc3)cc2Cl)O1 (centres unmarked) [Difenoconazole, difenoconazole]
LogPow ([1]; 25 °C, Flask method): 4.4

COCC(=O)N(c1c(C)cccc1C)[C@H](C)C(=O)OC [Metalaxyl M, metalaxyl M]
LogPow ([1]; 25 °C, HPLC method): 1.71

COCC(=O)N(c1c(C)cccc1C)C(C)C(=O)OC (centres unmarked) [Metalaxyl, metalaxyl]
LogPow ([1]; 25 °C, Flask method): 1.75

CC(C)(C)C(O)(CCc1ccc(Cl)cc1)Cn1cncn1 (centres unmarked) [Tebuconazole, tebuconazole]
LogPow ([1]; 20 °C, Flask method): 3.7

CC(C)(C)C(O)C(Oc1ccc(Cl)cc1)n1cncn1 (centres unmarked) [Triadimenol, triadimenol]
chromatographic logP (physchem): ~2.96
